Measurements from ChEMBL document CHEMBL4842344, “Design, synthesis and biological activity evaluation of novel scopoletin-NO donor derivatives against MCF-7 human breast cancer in vitro and in vivo” (Eur J Med Chem, 2021).
Active and inactive are the calls of the source. The calls are words filed in the database; no cut-off is given here.

Tests used:
MCF7 [1] = test: Antiproliferative activity against human MCF7 cells assessed as inhibition of cell growth measured after 48 hrs by MTT assay; type: functional, cell-based; settings: MCF7, 48 h
MDA-MB-231 = test: Antiproliferative activity against human MDA-MB-231 cells assessed as inhibition of cell growth measured after 48 hrs by MTT assay; type: functional, cell-based; settings: MDA-MB-231, 48 h
MCF7 [2] = test: Inhibition of cell proliferation in human MCF7 cells assessed as increase in intracellular NO production at 25 uM measured after 2.5 hrs by nitric oxide assay; type: functional, cell-based
MCF-10A = test: Cytotoxicity against human MCF-10A cells assessed as reduction in cell viability measured after 48 hrs by MTT assay; type: cell-based
MCF7 [3] = test: Induction of cell cycle arrest in human MCF7 cells assessed as accumulation of cells in S phase at 0.25 uM measured after 24 hrs by propidium iodide staining based flow cytometry analysis (Rvb= 25.71%); type: functional
MCF7 [4] = test: Antitumor activity against human MCF7 cells xenografted in BALB/c nude mouse assessed as reduction in tumor volume at 30 mg/kg, ip administered once every 2 days for 21 consecutive days relative to control; type: functional; parameters: scale not given: the % may be the effect or the level left; settings: time 21 day
MCF7 [5] = test: Induction of apoptosis in human MCF7 cells assessed as downregulation of Bcl-2 expression at 0.5 to 2 uM measured after 24 hrs by western blot analysis; type: functional, cell-based; settings: dose 0.5-2 µM
MCF7 [6] = test: Induction of cell cycle arrest in human MCF7 cells assessed as accumulation of cells in G2 phase at 0.5 uM measured after 24 hrs by propidium iodide staining based flow cytometry analysis (Rvb= 18.5%); type: functional
MCF7 [7] = test: Induction of apoptosis in human MCF7 cells assessed as early apoptotic cells at 1 uM measured after 24 hrs by Annexin-V FITC/PI staining based flow cytometry analysis (Rvb= 1.33%); type: functional
MCF7 [8] = test: Induction of apoptosis in human MCF7 cells assessed as late apoptotic cells at 0.25 uM measured after 24 hrs by Annexin-V FITC/PI staining based flow cytometry analysis (Rvb= 5.61%); type: functional
MCF7 [9] = test: Antitumor activity against human MCF7 cells xenografted in BALB/c nude mouse assessed as reduction in tumor weight at 30 to 60 mg/kg, ip administered once every 2 days for 21 consecutive days; type: functional, organism-based; settings: dose 30-60 mg/kg, time 21.0 day
MCF7 [10] = test: Induction of apoptosis in human MCF7 cells assessed as dead cells at 0.5 uM measured after 24 hrs by Annexin-V FITC/PI staining based flow cytometry analysis (Rvb= 0.06%); type: functional
MCF7 [11] = test: Inhibition of PI3K/AKT signalling pathway in human MCF7 cells assessed as reduction in phosphorylated PI3K expression measured after 24 hrs by western blot analysis; type: cell-based; settings: dose 0.5-2 µM
MCF7 [12] = test: Induction of cell cycle arrest in human MCF7 cells assessed as accumulation of cells in G1 phase at 0.25 uM measured after 24 hrs by propidium iodide staining based flow cytometry analysis (Rvb= 54.96%); type: functional
MCF7 [13] = test: Induction of cell cycle arrest in human MCF7 cells assessed as accumulation of cells in G2/M phase at 0.25 to 1 uM measured after 24 hrs by propidium iodide staining based flow cytometry analysis (Rvb= 19.7%); type: functional; settings: dose 0.25-1 µM
MCF7 [14] = test: Induction of apoptosis in human MCF7 cells assessed as dead cells at 1 uM measured after 24 hrs by Annexin-V FITC/PI staining based flow cytometry analysis (Rvb= 0.06%); type: functional
MCF7 [15] = test: Potency index, ratio of scopoletin derivative 5 IC50 to test compound IC50 for human MCF7 cells assessed as inhibition of cell growth measured after 48 hrs by MTT assay; type: functional
MCF7 [16] = test: Antitumor activity against human MCF7 cells xenografted in ip dosed BALB/c nude mouse assessed as tumor growth inhibition administered once every 2 days for 21 consecutive days; type: functional, organism-based; settings: time 21.0 day
MCF7 [17] = test: Induction of cell cycle arrest in human MCF7 cells assessed as accumulation of cells in G2 phase at 0.25 uM measured after 24 hrs by propidium iodide staining based flow cytometry analysis (Rvb= 18.5%); type: functional
MCF7 [18] = test: Induction of apoptosis in human MCF7 cells assessed as live cells at 0.25 uM measured after 24 hrs by Annexin-V FITC/PI staining based flow cytometry analysis (Rvb= 93.0%); type: functional
MCF7 [19] = test: Induction of cell cycle arrest in human MCF7 cells assessed as accumulation of cells in G1 phase at 0.5 uM measured after 24 hrs by propidium iodide staining based flow cytometry analysis (Rvb= 54.96%); type: functional
MCF7 [20] = test: Inhibition of PI3K/AKT signalling pathway in human MCF7 cells assessed as reduction in PI3K expression at 0.5 to 2 uM measured after 24 hrs by western blot analysis; type: cell-based; settings: dose 0.5-2 µM
[21] = Toxicity in BALB/c mouse xenografted with human MCF7 cells assessed as effect on lung at 30 to 60 mg/kg, ip measured after 21 days by hematoxylin and eosin staining based histopathological analysis; type: organism-based; settings: in vivo, 504 h, dose 30-60 mg/kg, time 21 day
MCF7 [22] = test: Induction of cell cycle arrest in human MCF7 cells assessed as accumulation of cells in G1 phase at 1 uM measured after 24 hrs by propidium iodide staining based flow cytometry analysis (Rvb= 54.96%); type: functional
MCF7 [23] = test: Induction of apoptosis in human MCF7 cells assessed as dead cells at 0.25 uM measured after 24 hrs by Annexin-V FITC/PI staining based flow cytometry analysis (Rvb= 0.06%); type: functional
[24] = Toxicity in BALB/c mouse xenografted with human MCF7 cells assessed as effect on heart at 30 to 60 mg/kg, ip measured after 21 days by hematoxylin and eosin staining based histopathological analysis; type: organism-based; settings: in vivo, 504 h, dose 30-60 mg/kg, time 21 day
[25] = Toxicity in BALB/c mouse xenografted with human MCF7 cells assessed as weight loss at 30 to 60 mg/kg, ip measured after 21 days; type: organism-based; settings: in vivo, 504 h, dose 30-60 mg/kg, time 21 day
MCF7 [26] = test: Induction of apoptosis in human MCF7 cells assessed as live cells at 0.5 uM measured after 24 hrs by Annexin-V FITC/PI staining based flow cytometry analysis (Rvb= 93.0%); type: functional
[27] = Toxicity in BALB/c mouse xenografted with human MCF7 cells assessed as effect on liver at 30 to 60 mg/kg, ip measured after 21 days by hematoxylin and eosin staining based histopathological analysis; type: organism-based; settings: in vivo, 504 h, dose 30-60 mg/kg, time 21 day
MCF7 [28] = test: Induction of apoptosis in human MCF7 cells assessed as late apoptotic cells at 0.5 uM measured after 24 hrs by Annexin-V FITC/PI staining based flow cytometry analysis (Rvb= 5.61%); type: functional
MCF7 [29] = test: Induction of apoptosis in human MCF7 cells assessed as increase in cleavage of PARP-1 at 0.5 to 2 uM measured after 24 hrs by western blot analysis; type: functional, cell-based; settings: dose 0.5-2 µM
MCF7 [30] = test: Induction of cell cycle arrest in human MCF7 cells assessed as accumulation of cells in S phase at 0.5 uM measured after 24 hrs by propidium iodide staining based flow cytometry analysis (Rvb= 25.71%); type: functional
MCF7 [31] = test: Inhibition of PI3K/AKT signalling pathway in human MCF7 cells assessed as reduction in phosphorylated AKT expression measured after 24 hrs by western blot analysis; type: cell-based; settings: dose 0.5-2 µM
MCF7 [32] = test: Inhibition of PI3K/AKT signalling pathway in human MCF7 cells assessed as reduction in AKT expression at 0.5 to 2 uM measured after 24 hrs by western blot analysis; type: cell-based; settings: dose 0.5-2 µM
MCF7 [33] = test: Induction of apoptosis in human MCF7 cells assessed as upregulation of Bax expression at 0.5 to 2 uM measured after 24 hrs by western blot analysis; type: functional, cell-based; settings: dose 0.5-2 µM
MCF7 [34] = test: Induction of apoptosis in human MCF7 cells assessed as upregulation of Bad expression at 0.5 to 2 uM measured after 24 hrs by western blot analysis; type: functional, cell-based; settings: dose 0.5-2 µM
[35] = Toxicity in BALB/c mouse xenografted with human MCF7 cells assessed as effect on kidney at 30 to 60 mg/kg, ip measured after 21 days by hematoxylin and eosin staining based histopathological analysis; type: organism-based; settings: in vivo, 504 h, dose 30-60 mg/kg, time 21 day
MCF7 [36] = test: Induction of apoptosis in human MCF7 cells assessed as live cells at 1 uM measured after 24 hrs by Annexin-V FITC/PI staining based flow cytometry analysis (Rvb= 93.0%); type: functional
MCF7 [37] = test: Induction of apoptosis in human MCF7 cells assessed as late apoptotic cells at 1 uM measured after 24 hrs by Annexin-V FITC/PI staining based flow cytometry analysis (Rvb= 5.61%); type: functional
MCF7 [38] = test: Antiproliferative activity against human MCF7 cells assessed as inhibition of cell proliferation at 2 uM pretreated with hemoglobin NO scavenger for 2 hrs followed by addition of compound and measured after 48 hrs by MTT assay; type: functional, cell-based
MCF7 [39] = test: Induction of apoptosis in human MCF7 cells assessed as early apoptotic cells at 0.25 uM measured after 24 hrs by Annexin-V FITC/PI staining based flow cytometry analysis (Rvb= 1.33%); type: functional
MCF7 [40] = test: Induction of cell cycle arrest in human MCF7 cells assessed as accumulation of cells in G2 phase at 1 uM measured after 24 hrs by propidium iodide staining based flow cytometry analysis (Rvb= 18.5%); type: functional
[41] = Toxicity in BALB/c mouse xenografted with human MCF7 cells assessed as effect on spleen at 30 to 60 mg/kg, ip measured after 21 days by hematoxylin and eosin staining based histopathological analysis; type: organism-based; settings: in vivo, 504 h, dose 30-60 mg/kg, time 21 day
MCF7 [42] = test: Induction of cell cycle arrest in human MCF7 cells assessed as accumulation of cells in sub G1 phase at 0.25 to 1 uM measured after 24 hrs by propidium iodide staining based flow cytometry analysis (Rvb= 21.1%); type: functional; settings: dose 0.25-1 µM
MCF7 [43] = test: Antitumor activity against human MCF7 cells xenografted in BALB/c nude mouse assessed as tumor growth inhibition at 60 mg/kg, ip administered once every 2 days for 21 consecutive days relative to control; type: functional; settings: 504 h, time 21 day, read-out: TGI
MCF7 [44] = test: Induction of cell cycle arrest in human MCF7 cells assessed as accumulation of cells in S phase at 1 uM measured after 24 hrs by propidium iodide staining based flow cytometry analysis (Rvb= 25.71%); type: functional
MCF7 [45] = test: Induction of apoptosis in human MCF7 cells assessed as early apoptotic cells at 0.5 uM measured after 24 hrs by Annexin-V FITC/PI staining based flow cytometry analysis (Rvb= 1.33%); type: functional

With `COc1cc2cc(C(=O)NCCCc3ccc(F)cc3)c(=O)oc2cc1OCCCOc1no[n+]([O-])c1S(=O)(=O)c1ccccc1` the IC50 (MCF7 [1]) was 600 nM, the IC50 (MDA-MB-231) was 690 nM and the Activity (MCF7 [2]) was “Active”. It also gave an IC50 (MCF-10A) of 8920 nM.

With `COc1cc2cc(C(=O)NCc3ccc(F)cc3)c(=O)oc2cc1OCCCOc1no[n+]([O-])c1S(=O)(=O)c1ccccc1` the Activity (MCF7 [3]) was 20.8%, the Activity (MCF7 [4]) was 63.3% and the Activity (MCF7 [5]) was “Dose-Dependent Effect”. For the same compound, the Activity (MCF7 [6]) was 38.44%, the Activity (MCF7 [7]) was 9.38% and the Activity (MCF7 [8]) was 6.53%. The Activity (MCF7 [9]) was “Active”, the Activity (MCF7 [10]) was 0.196% and the IC50 (MCF7 [1]) was 370 nM. For the same compound, the IC50 (MDA-MB-231) was 770 nM, the inhibition (MCF7 [11]) was “Dose-Dependent Effect” and the Activity (MCF7 [12]) was 52.88%. For the same compound, the Activity (MCF7 [13]) was 47.1%, the Activity (MCF7 [14]) was 1.41% and the “Ratio IC50” value (MCF7 [15]) was 5. The Activity (MCF7 [16]) was “Dose-Dependent Effect”, the Activity (MCF7 [17]) was 25.76% and the Activity (MCF7 [18]) was 87.5%. The Activity (MCF7 [19]) was 40.11%, the Activity (MCF7 [2]) was “Active” and the inhibition (MCF7 [20]) was “inactive”. For the same compound, the Activity [21] was “Non-Toxic”, the Activity (MCF7 [22]) was 36.65% and the Activity (MCF7 [23]) was 0.153%. The Activity [24] was “Non-Toxic”, the Activity [25] was “Non-Toxic” and the Activity (MCF7 [26]) was 83.1%. The Activity [27] was “Non-Toxic”, the Activity (MCF7 [28]) was 9.19% and the Activity (MCF7 [29]) was “Active”. For the same compound, the Activity (MCF7 [30]) was 19.05%, the IC50 (MCF-10A) was 8460 nM and the inhibition (MCF7 [31]) was “Dose-Dependent Effect”. The inhibition (MCF7 [32]) was “inactive”, the Activity (MCF7 [33]) was “Active” and the Activity (MCF7 [34]) was “Active”. The Activity [35] was “Non-Toxic”, the Activity (MCF7 [36]) was 62% and the Activity (MCF7 [37]) was 27.2%. For the same compound, the Activity (MCF7 [38]) was “inactive”, the Activity (MCF7 [39]) was 5.72% and the Activity (MCF7 [40]) was 44.96%. The Activity [41] was “Non-Toxic”, the Activity (MCF7 [42]) was 50% and the inhibition in vivo at 60 mg/kg (MCF7 [43]) was 75.2%. For the same compound, the Activity (MCF7 [44]) was 18.16% and the Activity (MCF7 [45]) was 7.49%.
